Measured values taken from publication PMC5908784, “Extracellular loops 2 and 3 of the calcitonin receptor selectively modify agonist binding and efficacy” (Biochemical Pharmacology, 2018).
Residue numbers refer to the chain shown, from its start. Where a SMILES comes first, the peptide text is derived from it. Bridges are numbered along the chain shown (N, C = ends).

Tests used:
Experiment in all cases: ERK1/2 phosphorylation
Type in all cases: cell-based
[1] = molecular target: T1, hCTR V283A (Homo sapiens, UniProt P30988, V283A); details: CV1-FlpIn cells, mean ± S.E.M.; for Emax: pERK maximal response; for EC50: pERK, three-parameter logistic fit
T1 construct: expressed in transfected cells
T1 sequence (P30988 25-474 V283A): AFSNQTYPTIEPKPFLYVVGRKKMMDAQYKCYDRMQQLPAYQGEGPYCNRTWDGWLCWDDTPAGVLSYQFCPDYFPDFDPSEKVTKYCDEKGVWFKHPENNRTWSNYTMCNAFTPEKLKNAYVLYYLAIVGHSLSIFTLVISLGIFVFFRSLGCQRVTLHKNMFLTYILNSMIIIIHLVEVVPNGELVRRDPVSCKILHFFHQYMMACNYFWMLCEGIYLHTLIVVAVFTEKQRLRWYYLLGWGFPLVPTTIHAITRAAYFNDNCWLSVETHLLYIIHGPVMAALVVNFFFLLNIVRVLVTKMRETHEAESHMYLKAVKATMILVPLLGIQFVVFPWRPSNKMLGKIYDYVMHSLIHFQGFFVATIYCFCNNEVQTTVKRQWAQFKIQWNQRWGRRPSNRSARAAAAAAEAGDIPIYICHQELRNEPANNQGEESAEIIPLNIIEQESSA
Outline: (§1)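 Overnight-plated cells at 2.5 × 10^4/well are stimulated, and ERK1/2 phosphorylation is referenced to the 10% FBS response at 6 min before logistic curve fitting.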

[2] = molecular target: T2, hCTR S292A (Homo sapiens, UniProt P30988, S292A); details: CV1-FlpIn cells, mean ± S.E.M.; for Emax: pERK maximal response; for EC50: pERK, three-parameter logistic fit
T2 construct: expressed in transfected cells
T2 sequence (P30988 25-474 S292A): T1 sequence (P30988 25-474 V283A) with A259V, S268A
Outline: as §1

[3] = molecular target: T3, hCTR P363A (Homo sapiens, UniProt P30988, P363A); details: CV1-FlpIn cells, mean ± S.E.M.; for Emax: pERK maximal response
T3 construct: expressed in transfected cells
T3 sequence (P30988 25-474 P363A): T1 sequence (P30988 25-474 V283A) with A259V, P339A
Outline: as §1

[4] = molecular target: T4, hCTR S364A (Homo sapiens, UniProt P30988, S364A); details: CV1-FlpIn cells, mean ± S.E.M.; for Emax: pERK maximal response; for EC50: pERK, three-parameter logistic fit
T4 construct: c-Myc (N); expressed in transfected cells
T4 sequence (P30988 25-474 S364A): T1 sequence (P30988 25-474 V283A) with A259V, S340A
Outline: as §1

[5] = molecular target: T5, hCTR N288A (Homo sapiens, UniProt P30988, N288A); details: CV1-FlpIn cells, mean ± S.E.M.; for Emax: pERK maximal response; for EC50: pERK, three-parameter logistic fit
T5 construct: expressed in transfected cells
T5 sequence (P30988 25-474 N288A): T1 sequence (P30988 25-474 V283A) with A259V, N264A
Outline: as §1

Row | Structure (SMILES) | Emax [1] [%] | Emax [2] [%] | Emax [3] [%] | Emax [4] [%] | Emax [5] [%] | EC50 [1] [nM] | EC50 [2] [nM] | EC50 [4] [nM] | EC50 [5] [nM] | EC50 ([3]; pERK, three-parameter logistic fit) [nM]
1 | CC(C)C[C@H](NC(=O)[C@H](CCCCN)NC(=O)CNC(=O)[C@H](CC(C)C)NC(=O)[C@@H](NC(=O)[C@@H]1CSSC[C@H](N)C(=O)N[C@@H](CO)C(=O)N[C@@H](CC(N)=O)C(=O)N[C@@H](CC(C)C)C(=O)N[C@@H](CO)C(=O)N[C@@H]([C@@H](C)O)C(=O)N1)C(C)C)C(=O)N[C@@H](CO)C(=O)N[C@@H](CCC(N)=O)C(=O)N[C@@H](CCC(=O)O)C(=O)N[C@@H](CC(C)C)C(=O)N[C@@H](Cc1c[nH]cn1)C(=O)N[C@@H](CCCCN)C(=O)N[C@@H](CC(C)C)C(=O)N[C@@H](CCC(N)=O)C(=O)N[C@H](C(=O)N[C@@H](Cc1ccc(O)cc1)C(=O)N1CCC[C@H]1C(=O)N[C@@H](CCCNC(=N)N)C(=O)N[C@H](C(=O)N[C@@H](CC(N)=O)C(=O)N[C@H](C(=O)NCC(=O)N[C@@H](CO)C(=O)NCC(=O)N[C@H](C(=O)N1CCC[C@H]1C(N)=O)[C@@H](C)O)[C@@H](C)O)[C@@H](C)O)[C@@H](C)O [sCT] | 133 ± 10 | 121 ± 7 | 95 ± 5 | 106 ± 4 | 127 ± 13 | – | – | – | – | –
2 | CC(C)C[C@H](NC(=O)[C@H](CC(N)=O)NC(=O)[C@H](CC(N)=O)NC(=O)[C@H](CO)NC(=O)[C@H](CO)NC(=O)[C@H](CCCNC(=N)N)NC(=O)[C@@H](NC(=O)[C@H](CC(C)C)NC(=O)[C@H](Cc1ccccc1)NC(=O)[C@H](CC(N)=O)NC(=O)[C@H](C)NC(=O)[C@H](CC(C)C)NC(=O)[C@H](CCCNC(=N)N)NC(=O)[C@H](CCC(N)=O)NC(=O)[C@@H](NC(=O)[C@H](C)NC(=O)[C@@H]1CSSC[C@H](NC(=O)[C@@H](N)CCCCN)C(=O)N[C@@H](CC(N)=O)C(=O)N[C@@H]([C@@H](C)O)C(=O)N[C@@H](C)C(=O)N[C@@H]([C@@H](C)O)C(=O)N1)[C@@H](C)O)C(C)C)C(=O)NCC(=O)N1CCC[C@H]1C(=O)N[C@H](C(=O)N[C@@H](CC(C)C)C(=O)N1CCC[C@H]1C(=O)N1CCC[C@H]1C(=O)N[C@H](C(=O)N[C@@H](CC(N)=O)C(=O)N[C@H](C(=O)NCC(=O)N[C@@H](CO)C(=O)N[C@@H](CC(N)=O)C(=O)N[C@H](C(=O)N[C@@H](Cc1ccc(O)cc1)C(N)=O)[C@@H](C)O)C(C)C)[C@@H](C)O)C(C)C [rAmy] | 83 ± 9 | 96 ± 12 | 28 ± 9 | 66 ± 9 | 79 ± 7 | – | – | – | – | –
3 | CC[C@H](C)[C@H](NC(=O)[C@H](C)NC(=O)[C@@H](NC(=O)[C@H](CCC(N)=O)NC(=O)[C@@H]1CCCN1C(=O)[C@H](Cc1ccccc1)NC(=O)[C@@H](NC(=O)[C@H](Cc1c[nH]cn1)NC(=O)[C@H](Cc1ccccc1)NC(=O)[C@H](CCCCN)NC(=O)[C@H](CC(N)=O)NC(=O)[C@H](Cc1ccccc1)NC(=O)[C@H](CC(=O)O)NC(=O)[C@H](CCC(N)=O)NC(=O)[C@@H](NC(=O)[C@H](Cc1ccc(O)cc1)NC(=O)[C@@H](NC(=O)CNC(=O)[C@H](CC(C)C)NC(=O)[C@H](CCSC)NC(=O)[C@@H]1CSSC[C@H](N)C(=O)NCC(=O)N[C@@H](CC(N)=O)C(=O)N[C@@H](CC(C)C)C(=O)N[C@@H](CO)C(=O)N[C@@H]([C@@H](C)O)C(=O)N1)[C@@H](C)O)[C@@H](C)O)[C@@H](C)O)[C@@H](C)O)C(=O)NCC(=O)N[C@H](C(=O)NCC(=O)N[C@@H](C)C(=O)N1CCC[C@H]1C(N)=O)C(C)C [hCT] | 155 ± 14 | 116 ± 11 | 64 ± 6 | 135 ± 10 | 137 ± 8 | – | – | – | – | –
4 | CC(C)C[C@H](NC(=O)CNC(=O)[C@H](C)NC(=O)[C@H](CC(C)C)NC(=O)[C@H](CCCNC(=N)N)NC(=O)[C@H](Cc1cnc[nH]1)NC(=O)[C@@H](NC(=O)[C@@H](NC(=O)[C@@H]1CSSC[C@H](NC(=O)[C@H](C)N)C(=O)N[C@@H](CC(=O)O)C(=O)N[C@@H]([C@@H](C)O)C(=O)N[C@@H](C)C(=O)N[C@@H]([C@@H](C)O)C(=O)N1)C(C)C)[C@@H](C)O)C(=O)N[C@@H](CC(C)C)C(=O)N[C@@H](CO)C(=O)N[C@@H](CCCNC(=N)N)C(=O)N[C@@H](CO)C(=O)NCC(=O)NCC(=O)N[C@H](C(=O)N[C@H](C(=O)N[C@@H](CCCCN)C(=O)N[C@@H](CC(N)=O)C(=O)N[C@@H](CC(N)=O)C(=O)N[C@@H](Cc1ccccc1)C(=O)N[C@H](C(=O)N1CCC[C@H]1C(=O)N[C@H](C(=O)N[C@@H](CC(N)=O)C(=O)N[C@H](C(=O)NCC(=O)N[C@@H](CO)C(=O)N[C@@H](CCCCN)C(=O)N[C@@H](C)C(=O)N[C@@H](Cc1ccccc1)C(N)=O)C(C)C)[C@@H](C)O)C(C)C)C(C)C)C(C)C [hαCGRP] | 81 ± 7 | 80 ± 12 | – | 54 ± 6 | 110 ± 10 | 60.3 | 20.9 | 10.7 | 97.7 | –
5 | CSCC[C@H](NC(=O)CNC(=O)[C@H](CO)NC(=O)[C@H](Cc1ccccc1)NC(=O)[C@H](CCCNC(=N)N)NC(=O)[C@H](Cc1c[nH]cn1)NC(=O)[C@H](Cc1ccccc1)NC(=O)[C@H](CC(N)=O)NC(=O)[C@H](CC(N)=O)NC(=O)[C@H](CC(C)C)NC(=O)[C@H](CC(N)=O)NC(=O)[C@H](CCCNC(=N)N)NC(=O)[C@H](Cc1c[nH]c2ccccc12)NC(=O)[C@H](Cc1ccc(O)cc1)NC(=O)[C@H](C)NC(=O)[C@H](CO)NC(=O)[C@H](CC(C)C)NC(=O)[C@@H](NC(=O)[C@@H]1CSSC[C@H](N)C(=O)N[C@@H](CO)C(=O)N[C@@H](CC(N)=O)C(=O)N[C@@H](CC(C)C)C(=O)N[C@@H](CO)C(=O)N[C@@H]([C@@H](C)O)C(=O)N1)C(C)C)C(=O)NCC(=O)N[C@@H](Cc1ccccc1)C(=O)NCC(=O)N1CCC[C@H]1C(=O)N[C@@H](CCC(=O)O)C(=O)N[C@H](C(=O)N1CCC[C@H]1C(N)=O)[C@@H](C)O [pCT] (H-CSNLSTCVLSAYWRNLNNFHRFSGMGFGPETP-NH2; disulfide 1-7) | 109 ± 12 | 104 ± 7 | 39 ± 2 | 127 ± 12 | 135 ± 11 | 2.24 | 0.55 | 3.63 | 2.95 | 5.75
